Source: patent EP0291663A2, “Tert.-butyl amino-3-(phenyl-2'-phenoxy)-1-propanol-2 for the control of heart arrhythmia” (priority 1987, dated 1988)
Counter-ions that a name gives are not always drawn.

Key:
in vivo = details: rat
Hunde-Purkinye Fasern = assay: Electrophysiology on isolated dog Purkinje fibres (Vmax, action potential duration); assay type: cell-based, Hund; details: for Rate Factor von Vmax: (% of control Vmax at cycle length 2000 mSek.)/(% of control Vmax at cycle length 500 mSek.) at C20Vmax
From the text: (§1) Überraschenderweise wurde gefunden, daß das tert.-Butylamino-3-(phenyl-2ʹ-phenoxy)-1-propanol 2 ("Bipranol") der Formel [drawing 1] und seine Salze mit Säuren keine β-sympatholytische Wirkung, sondern eine starke antiarrhythmische Wirkung besitzen. Die elektrophysiologischen und hämodynamischen Wirkungen wurden in vitro an zwei verschiedenen isolierten Herzpräparaten und in vivo (Hund) experimentell untersucht. In Tabelle I sind Ergebnisse pharmakologischer Untersuchungen mit Diprafenon, Propafenon und Bipranol zusammengefaßt.
(§2) C20 Vmax: Konzentration, die Vmax bei einer Zykluslänge von 1000 mSek. um 20 % verringert. C20 CF: Konzentration, die die Kontraktion des Papillarmuskels um 20 % verringert. Rate Factor von Vmax: (% des Kontrollwertes Vmax bei einer Zykluslänge von 2000 mSek.)/(% des Kontrollwertes Vmax bei einer Zykluslänge von 500 mSek.) bei C20Vmax. C20APD95: Die Konzentration, die das APD95 des normalen Aktionspotentials um 20 % verlängert. Sf : Sicherheitsfaktor, errechnet als Rate Factor von Vmax × (C20 CF/C20 Vmax).
(§3) In in vitro-Experimenten an isolierten Herzpräparaten lag die leistungsverzögernde und damit antiarrhythmische Wirkung (C20 Vmax) bei einer Dosis von 2,2 µMol Bipranol. Diese Dosierung entspricht einer antiarrhythmischen wirksamen Dosis von etwa 3 mg/kg bei in vivo Versuchen an Hunden. […] Diese Konzentration ist ungefähr 14 mal höher als für eine antiarrhythmische Wirkung gebraucht wird.

[1] = system: Meerschweinchen-Papillarmuskel; assay: Contraction of isolated guinea pig papillary muscle (safety factor, negative inotropy); assay type: cell-based; details: for Sf (Sicherheitsfaktor): Rate Factor von Vmax × (C20 CF/C20 Vmax)
From the text: as §1, §2

ventrikuläre Arrhythmien = assay type: in vivo, Hund; details: dog
From the text: Dies wird auch durch in vivo Experimente bestätigt. Die antiarrhythmische Wirksamkeit der Verbindung wurde an Hunden nach H. Glücker et al., Arzneim.Forsch. (Drug Ros.) Bd. 35 (II), 9 (1985) S.1387-1393 geprüft. Die […] wurde mindestens 2 Stunden lang occludiert. Nach dem Auftreten konstanter […] die Verbindungen intravenös injiziert.

β-Rezeptor = assay type: in vivo, Hund
From the text: Als Parameter zur Bestimmung der β-Rezeptor-blockierenden Wirkung am narkotisierten Hund dienten dP/dt als Maß für die Kontraktionskraft des Herzens, sowie cardiac output (Herzzeitvolumen). […] Im Gegensatz wirken β-Blocker immer negativ-inotrop. […] Die Beobachtungen bei dieser Dosis sind wahrscheinlich Folge einer nicht spezifischen toxischen Wirkung und beruhen nicht auf einer β-sympatolytischen Wirkung.

[2] = system: Meerschweinchen-Vorhofmuskel; assay: Antagonism of the positive inotropic effect of adrenaline on isolated guinea pig atrial muscle; assay type: cell-based; details: highest test concentration 30 µMol
Protocol: as §3

[3] = anaesthetised dog, up to 30 mg/kg
[4] = concentration that prolongs APD95 of the normal action potential by 20 %

CC(C)(C)NCC(O)COc1ccccc1-c1ccccc1 (centres unmarked) [Bipranol HCl, tert.-Butylamino-3-(phenyl-2ʹ-phenoxy)-1-propanol-2]
LD50 (in vivo; Ratte (iv)): 11 mg/kg | LD50 (in vivo; Ratte (oral)): 571 mg/kg

CC(C)(C)NCC(O)COc1ccccc1-c1ccccc1 (centres unmarked) [Bipranol, tert.-Butylamino-3-(phenyl-2ʹ-phenoxy)-1-propanol-2]
Rate Factor von Vmax (Hunde-Purkinye Fasern): 5 | IC20 (Hunde-Purkinye Fasern; Canis lupus familiaris, purkinje, concentration that reduces Vmax by 20 % at cycle length 1000 mSek., isolated heart preparations, read-out: C20 Vmax): 2.2 µM | EC20 (Hunde-Purkinye Fasern; purkinje, concentration that prolongs APD95 of the normal action potential by 20 %, read-out: C20APD95): 7.2 µM | negativ-inotrope Nebenwirkung [1]: keine nennenswerte negativ-inotrope Nebenwirkung | Sf (Sicherheitsfaktor) [1]: 9,09 | Reduktion der ventrikulären Extrazystolen (ventrikuläre Arrhythmien; i.v., 1,6 mg/kg followed by 50 µg/kg/min): > 90% | cardiac output (Herzzeitvolumen) (β-Rezeptor; [3]): nicht beeinflußt | dP/dt (Kontraktionskraft des Herzens) (β-Rezeptor; [3]): keine negativ-inotrope Wirkung | Mortality (β-Rezeptor; in vivo, iv, 30 mg/kg): starben alle Hunde | Abschwächung der positiv-inotropen Wirkung von 1 µMol Adrenalin [2]: geringe Abschwächung

CCC(C)(C)NCC(O)COc1ccccc1C(=O)CCc1ccccc1 (centres unmarked) [Diprafenon]
Rate Factor von Vmax (Hunde-Purkinye Fasern): 1,19 | C20APD95 (Hunde-Purkinye Fasern; [4]): nicht erreicht | negativ-inotrope Nebenwirkung [1]: deutlich negativer inotroper Effekt | Sf (Sicherheitsfaktor) [1]: 4,86

O=C(NCC1CCCCN1)c1cc(OCC(F)(F)F)ccc1OCC(F)(F)F (centres unmarked) [Flecainid, reference compound]
therapeutische Dosierung (ventrikuläre Arrhythmien; i.v., followed by 50 µg/kg/min): 2,4 mg/kg

CCCNCC(O)COc1ccccc1C(=O)CCc1ccccc1 (centres unmarked) [Propafenon]
Rate Factor von Vmax (Hunde-Purkinye Fasern): 1,08 | C20APD95 (Hunde-Purkinye Fasern; [4]): nicht erreicht | Sf (Sicherheitsfaktor) [1]: 1,55
